Measurements from US5225528A, “Cyclic hexapeptide oxytocin antagonists” (priority 1990, dated 1993).
Where a name gives a salt, the structure may show the parent alone. Read-outs that look alike come from different tables or passages of the source. Numbered stars: 1 amine (or outer) side, 2 acyl side, 3 side chain; on linkers, the order of the positions; unused ones are H or OH. Square brackets hold non-standard residues; d marks the D form. Peptide text beside a SMILES is read from it. * marks the point of attachment. X9 = O=C([C@@H]1CN(P(=O)(OCc2ccccc2)OCc2ccccc2)CCN1[*:1])[*:2]; dPip(4-aza,4-Cbz) = O=C(O)[C@H]1CN(C(=O)OCc2ccccc2)CCN1; dPhe(4-NH2) = Nc1ccc(C[C@@H](N)C(=O)O)cc1; dPiz(1,6-dehydro) = O=C(O)[C@H]1CCC=NN1; d2Nal = N[C@H](Cc1ccc2ccccc2c1)C(=O)O; NMeI = CC[C@H](C)[C@H](NC)C(=O)O; X6 = O=C([C@H]1CCCNN1[*:1])[*:2]; dNMeF = CN[C@H](Cc1ccccc1)C(=O)O; hPhe = N[C@@H](CCc1ccccc1)C(=O)O; Pip = O=C(O)[C@@H]1CCCCN1; dPip = O=C(O)[C@H]1CCCCN1; Orn = NCCC[C@H](N)C(=O)O; Boc = CC(C)(C)OC(=O)*; Bn = c1ccc(C*)cc1; tBu = CC(C)(C)*

Experiments:
AVP-V1 sites = biological target: T1, AVP-V1 sites (Rattus norvegicus, UniProt P30560); assay: [^3 H]AVP binding to crude membrane preparation of male rat liver (AVP-V1 sites)
T1 construct: crude membrane preparation of male rat liver (AVP-V1 sites); from tissue; host or cells: male rat liver, crude membranes
T1 sequence (P30560 whole entry): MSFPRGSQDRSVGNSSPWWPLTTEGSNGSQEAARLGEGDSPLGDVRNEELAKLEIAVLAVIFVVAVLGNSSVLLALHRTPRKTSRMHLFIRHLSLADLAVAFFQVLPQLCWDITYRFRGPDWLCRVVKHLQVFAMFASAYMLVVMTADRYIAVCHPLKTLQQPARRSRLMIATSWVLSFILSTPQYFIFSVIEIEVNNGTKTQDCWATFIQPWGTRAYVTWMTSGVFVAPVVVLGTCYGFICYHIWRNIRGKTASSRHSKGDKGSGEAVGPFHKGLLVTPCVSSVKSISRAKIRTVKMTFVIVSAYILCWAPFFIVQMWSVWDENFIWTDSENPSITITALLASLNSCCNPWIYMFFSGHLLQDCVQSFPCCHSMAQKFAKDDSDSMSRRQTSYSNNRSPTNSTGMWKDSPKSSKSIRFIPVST
Experimental: (§1) Nonspecific binding (5-10% of the total binding) was determined using 10 μM unlabeled AVP, and the binding reaction was terminated by filtration as described above for the [^3 H]OT binding assay.

uterine OT receptors = biological target: T2, uterine OT receptors (Rattus norvegicus, UniProt P70536); assay: [^3 H]OT binding to uterine OT receptors, crude membrane preparation of uteri from DES-treated rats; conditions: for inhibition at 1 µM / inhibition at 0.1 µM: 1 h, read-out: [^3 H]OT: percent inhibition of radioligand at the given concentration; for inhibition at 1 µM: @ 1,000 (nM)
T2 construct: from tissue; host or cells: uterus of DES-treated rats, crude membranes
T2 sequence (P70536 1-388): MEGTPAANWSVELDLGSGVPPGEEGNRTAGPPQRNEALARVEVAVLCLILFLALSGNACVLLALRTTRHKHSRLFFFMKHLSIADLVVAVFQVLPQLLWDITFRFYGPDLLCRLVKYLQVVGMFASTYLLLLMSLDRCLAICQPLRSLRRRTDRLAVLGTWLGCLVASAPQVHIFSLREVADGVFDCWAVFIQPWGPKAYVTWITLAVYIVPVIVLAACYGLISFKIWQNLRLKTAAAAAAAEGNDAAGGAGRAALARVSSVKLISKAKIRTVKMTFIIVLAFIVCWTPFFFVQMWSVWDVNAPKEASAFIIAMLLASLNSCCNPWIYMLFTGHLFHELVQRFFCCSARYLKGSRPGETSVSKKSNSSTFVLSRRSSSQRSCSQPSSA
Experimental: Competition studies were conducted at equilibrium (60 minutes; 22° C.) using 1 nM [^3 H]OT in the following assay buffer: 50 mM Tris-HCl, 5 mM MgCl2, and 0.1% BSA, pH 7.4.

AVP-V2 sites = biological target: T3, AVP-V2 sites (Rattus norvegicus, UniProt Q00788); assay: [^3 H]AVP binding to crude membrane preparation of male rat kidney medulla (AVP-V2 sites); conditions: for IC50: read-out: Receptor Binding Results IC50 (nM) [^3 H]-AVP-V2
T3 construct: male rat liver (AVP-V1 sites) or kidney medulla (AVP-V2 sites); from tissue; host or cells: male rat kidney medulla, crude membranes
T3 sequence (Q00788 whole entry): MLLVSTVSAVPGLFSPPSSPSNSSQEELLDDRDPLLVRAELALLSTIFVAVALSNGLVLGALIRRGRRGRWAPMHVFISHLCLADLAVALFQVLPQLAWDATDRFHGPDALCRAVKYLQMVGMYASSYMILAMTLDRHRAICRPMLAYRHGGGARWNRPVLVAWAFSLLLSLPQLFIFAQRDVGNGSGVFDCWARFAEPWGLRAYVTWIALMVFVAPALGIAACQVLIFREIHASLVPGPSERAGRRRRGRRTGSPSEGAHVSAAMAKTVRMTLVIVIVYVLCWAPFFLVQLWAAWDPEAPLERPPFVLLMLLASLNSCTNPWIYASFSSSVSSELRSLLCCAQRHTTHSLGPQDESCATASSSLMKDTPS
Experimental: as §1

[1] = read-out: Receptor Binding Results IC50 (nM) [^3 H]-AVP-V1
[2] = rat uterus membranes, 1 nM [^3 H]OT, read-out: Receptor Binding Results IC50 (nM) [^3 H]OT
[3] = Receptor Binding Results IC50 (nM) [^3 H]-AVP-V1
[4] = rat kidney medulla membranes, 2 nM [^3 H]AVP

Compound | IC50 (uterine OT receptors; [2]) | IC50 (AVP-V1 sites; [3]) | IC50 (AVP-V2 sites; [4]) | other results
CC[C@H](C)[C@@H]1NC(=O)[C@@H](Cc2ccccc2)NC(=O)[C@@H]2CCCN2C(=O)[C@@H](Cc2c[nH]cn2)NC(=O)[C@@H]2CCCCN2C(=O)[C@H]2CCCNN2C1=O [Example 14, Cyclo[D-phenylalanyl-L-isoleucyl-D-piperazyl-L-pipecolyl-D-histidyl-L-prolyl]] (cyclo(I[X6][Pip][dH]P[dF])) | 38 nM | – | – | IC50 (AVP-V1 sites; [1]): 10000 nM; IC50 (AVP-V2 sites): > 10000 nM
CC[C@H](C)[C@@H]1NC(=O)C(Cc2c[nH]c3ccc(F)cc23)NC(=O)[C@@H]2CCCN2C(=O)[C@@H](Cc2c[nH]cn2)NC(=O)[C@@H]2CCCCN2C(=O)[C@H]2CCCCN2C1=O (single isomer, unassigned) [157 higher Rf] | 590 nM | 10000 nM | > 10000 nM | –
CN1C(=O)[C@@H]2CCCCN2C(=O)[C@H]2CCCCN2C(=O)[C@H](CCc2ccccc2)NC(=O)[C@@H](Cc2c[nH]c3ccccc23)NC(=O)[C@@H]2CCCN2C(=O)[C@H]1Cc1ccccc1 [Example 133, c-[D-Tryptophanyl-L-homophenylalanyl-D-pipecolyl-L-pipecolyl-D-(N-methyl)phenylalanyl-prolyl]] (cyclo(P[dW][hPhe][dPip][Pip][dNMeF])) | 3600 nM | 10000 nM | 10000 nM | –
CCOc1ccc(C[C@H]2NC(=O)[C@@H]3CCCN3C(=O)[C@@H](Cc3ccccc3)NC(=O)[C@H](CC(N)=O)NC(=O)[C@@H]([C@H](C)O)NC(=O)[C@H]([C@@H](C)CC)NC2=O)cc1 [Example 99] (cyclo([dY](Et)I[dT]N[dF]P)) | > 10000 nM | > 10000 nM | > 10000 nM | –
CC[C@H](C)[C@@H]1NC(=O)[C@@H](Cc2ccc(OCc3ccccc3)cc2)NC(=O)[C@@H]2CCCN2C(=O)[C@@H](Cc2ccccc2)N(C)C(=O)[C@H](CCCCNC(=O)OC(C)(C)C)NC(=O)[C@H]2CCCCN2C1=O [Example 142, C-[D-(O-Benzyl)-tyrosinyl-L-isoleucyl-D-pipecolyl-L-(N-t-butyloxycarbonyl)lysyl-D-(N-methyl)phenylalanyl-L-prolyl]] (cyclo(I[dPip]K(Boc)[dNMeF]P[dY](Bn))) | – | > 10000 nM | > 10000 nM | inhibition at 1 µM (uterine OT receptors): 12%
CC[C@H](C)[C@@H]1NC(=O)[C@@H](Cc2c[nH]cn2)NC(=O)[C@@H]2CCCN2C(=O)[C@@H](Cc2ccccc2)N(C)C(=O)[C@@H]2CCCCN2C(=O)[C@H]2CCCCN2C1=O [Example 4, Cyclo[D-histidyl-L-isoleucyl-D-pipecolyl-L-pipecolyl-D-(N^α -methyl)-phenylalanyl-L-prolyl]] (cyclo(I[dPip][Pip][dNMeF]P[dH])) | > 10000 nM | > 10000 nM | > 10000 nM | –
CC[C@H](C)[C@@H]1NC(=O)[C@@H](Cc2c[nH]c3ccccc23)NC(=O)[C@@H]2CCCN2C(=O)[C@@H](Cc2c[nH]cn2)NC(=O)[C@H](CCCNC(=O)OC(C)(C)C)NC(=O)[C@H]2CCCCN2C1=O [Example 129, c-[D-Tryptophanyl-L-isoleucyl-D-pipecolyl-(N^δ -Boc)-L-ornithyl-D-histidyl-L-prolyl] acetate salt] (cyclo(I[dPip][Orn](Boc)[dH]P[dW])) | 100 nM | 10000 nM | 10000 nM | –
CC[C@H](C)[C@@H]1NC(=O)[C@@H](Cc2c[nH]c3ccccc23)NC(=O)[C@@H]2CCCN2C(=O)[C@@H](Cc2ccccc2)N(C)C(=O)[C@@H]2CN(P(=O)(OCc3ccccc3)OCc3ccccc3)CCN2C(=O)[C@H]2CCCCN2C1=O [Example 183, c-[D-Tryptophanyl-L-isoleucinyl-D-pipecolyl-L-piperazin-2-yl(4-dibenzylphosphoramidyl)-D-(N^α -Me)phenylalanyl-L-prolyl]] (cyclo(I[dPip][X9][dNMeF]P[dW])) | – | – | – | IC50 (AVP-V1 sites; Receptor Binding Results IC50 (nM) [^3 H]-AVP-V1, rat liver membranes, 1 nM [^3 H]AVP): > 10000 nM; inhibition at 0.1 µM (uterine OT receptors): 58%; inhibition at 10 µM (AVP-V2 sites; 0.5 h, read-out: [^3 H]-AVP-V2: percent inhibition of radioligand at the given concentration): 71%
CC[C@H](C)[C@@H]1NC(=O)[C@@H](Cc2ccc3ccccc3c2)NC(=O)[C@@H]2CCCN2C(=O)[C@@H](Cc2ccccc2)N(C)C(=O)[C@H](CCCCNC(=O)OC(C)(C)C)NC(=O)[C@H]2CCCCN2C1=O [Example 138, c-[D-2-Naphthylalanyl-L-isoleucyl-D-pipecolyl-L-(N-t-butyloxycarbonyl)lysyl-D-(N-methyl)phenylalanyl-L-prolyl]] (cyclo(I[dPip]K(Boc)[dNMeF]P[d2Nal])) | – | 10000 nM | – | inhibition at 0.1 µM (uterine OT receptors; @ 100 (nM)): 50%; inhibition at 1 µM (AVP-V2 sites; 0.5 h, @ 1,000 (nM), read-out: [^3 H]-AVP-V2: percent inhibition of radioligand at the given concentration): 42%
CC[C@H](C)[C@@H]1NC(=O)[C@@H](Cc2ccc(OC(C)(C)C)cc2)NC(=O)[C@@H]2CCCN2C(=O)[C@@H](Cc2ccccc2)N(C)C(=O)[C@H](CCCCNC(=O)OC(C)(C)C)NC(=O)[C@H]2CCCCN2C1=O [Example 144, C-[D-(O-t-Butyl)Tyrosiniyl-L-isoleucyl-D-pipecolyl-L(N-t-butyloxycarbonyl)lysyl-D-(N-methyl)phenylalanyl-L-prolyl]] (cyclo(I[dPip]K(Boc)[dNMeF]P[dY](tBu))) | – | > 10000 nM | 10000 nM | inhibition at 1 µM (uterine OT receptors): 67%
CC[C@H](C)[C@H]1C(=O)N2CCCC[C@@H]2C(=O)N2CCCC[C@H]2C(=O)N(C)[C@H](Cc2ccccc2)C(=O)N2CCC[C@H]2C(=O)N[C@H](Cc2ccccc2)C(=O)N1C [Example 105, c-[D-Phenylalanyl-N-methyl-L-isoleucyl-D-pipecolyl-L-pipecolyl-N-methyl-D-phenylalanyl-L-prolyl]] (cyclo([NMeI][dPip][Pip][dNMeF]P[dF])) | > 10000 nM | > 10000 nM | > 10000 nM | –
CC[C@H](C)[C@@H]1NC(=O)[C@@H](Cc2ccccc2)NC(=O)[C@@H]2CCCN2C(=O)[C@@H](Cc2ccc(N)cc2)NC(=O)[C@@H]2CCCCN2C(=O)[C@H]2CCCCN2C1=O [Example 48, Cyclo[D-phenylalanyl-L-isoleucyl-D-pipecolyl-L-pipecolyl-D-(p-amino)phenylalanyl-L-prolyl]] (cyclo(I[dPip][Pip][dPhe(4-NH2)]P[dF])) | 250 nM | 10000 nM | > 10000 nM | –
CC[C@H](C)[C@@H]1NC(=O)[C@@H](Cc2ccccc2)NC(=O)[C@@H]2CCCN2C(=O)[C@@H](Cc2ccccc2)N(C)C(=O)[C@H](CC(=O)O)NC(=O)[C@H]2CCCCN2C1=O [Example 116, c-[D-Phenylalanyl-L-isoleucyl-D-pipecolyl-L-aspartyl-N-methyl-D-phenylalanyl-L-prolyl]] (cyclo(D[dNMeF]P[dF]I[dPip])) | 1450 nM | > 10000 nM | > 10000 nM | –
CC[C@H](C)[C@@H]1NC(=O)[C@@H](Cc2ccccc2)NC(=O)[C@@H]2CCCN2C(=O)[C@@H](Cc2ccccc2)NC(=O)[C@@H]2CCCCN2C(=O)[C@H]2CN(C(=O)OCc3ccccc3)CCN2C1=O [Example 83, c-[D-Phenylalanyl-L-isoleucinyl-D-piperazin-2-yl-(4-Cbz)-L-pipecolyl-D-phenylalanyl-L-prolyl]] (cyclo(I[dPip(4-aza,4-Cbz)][Pip][dF]P[dF])) | 940 nM | 10000 nM | 10000 nM | –
CC[C@H](C)[C@@H]1NC(=O)[C@@H](Cc2c[nH]c3ccccc23)NC(=O)[C@@H]2CCCN2C(=O)[C@@H](Cc2ccccc2)N(C)C(=O)[C@H](CCCN)NC(=O)[C@H]2CCC=NN2C1=O [Example 127, c-[D-Tryptophanyl-L-isoleucyl-D-Δ-piperazyl-L-ornithyl-N-methyl-D-phenylalanyl L-prolyl]] (cyclo(I[dPiz(1,6-dehydro)][Orn][dNMeF]P[dW])) | – | – | 330 nM | IC50 (AVP-V1 sites; [1]): 1600 nM; IC50 (uterine OT receptors; Receptor Binding Results IC50 (nM) [^3 H]OT): 22 nM
CC[C@H](C)[C@@H]1NC(=O)[C@@H](Cc2ccc(OC)cc2)NC(=O)[C@@H]2CCCN2C(=O)[C@@H](Cc2ccccc2)N(C)C(=O)[C@H](CCCCNC(=O)OC(C)(C)C)NC(=O)[C@H]2CCCCN2C1=O [Example 149, c-[D-(O-Methyl)Tyrosyl-L-isoleucyl-D-pipecolyl-L-(N-t-butyloxycarbonyl)lysyl-D-(N-methyl)phenylalanyl-L-prolyl]] (cyclo(I[dPip]K(Boc)[dNMeF]P[dY](Me))) | – | > 10000 nM | 10000 nM | inhibition at 0.1 µM (uterine OT receptors; @ 100 (nM)): 53%
c-[D,L-3-(3-(5-Methyl)indolyl)alanyl-L-isoleucyl-D-pipecolyl-L-pipecolyl-D- histidyl-L-prolyl] [Example 154] | 680 nM | – | 7300 nM | IC50 (AVP-V1 sites; rat liver membranes, 1 nM [^3 H]AVP, read-out: Receptor Binding Results IC50 (nM) [^3 H]-AVP-V1): 13000 nM
